Assay results reported in patent US10226043B2, “Controlled release biocidal salts” (Nevada Naturals Inc., priority 2005, dated 2019).

Legend:
[1] = system: bacteria that are part of the background flora of raw meat; assay: Antimicrobial activity of compounded films (beef loins in heat-sealed package); assay type: cell-based
Method: Two beef loins from a slaughterhouse were tested in a heat-sealed package simulating food packaging. The linear low density polyethylene film was compounded with 1% w/w LAE lactate biocidal salt of the invention. The log colony forming units (“CFU”) reduction values for bacteria that are part of the background flora of raw meat for both samples are 42 days indicate that there is a release of the salt of the invention from the polyethylene film to the surrounding beef surfaces.

[2] = system: yeast cultures and A. niger; assay: Food-grade preservation test (aloe vera gel challenge); assay type: cell-based; settings: for Log Reduction Values, day 0: day 0, initial challenge 7 logs; for Log Reduction Values, day 0 / Log Reduction Values, day 2 / Log Reduction Values, day 7 / Log Reduction Values, day 14: aloe vera gel pH 4-4.5; for Log Reduction Values, day 0 / Log Reduction Values, day 2 / Log Reduction Values, day 7 / Log Reduction Values, day 14 / Log Reduction Values, day 21 / Log Reduction Values, day 28 / Log Reduction Values, day 35 / Log Reduction Values, day 42: LAE-HCl 1725 ppm, LAE-lactate 1500 ppm, lactic acid 1500 ppm; for Log Reduction Values, day 21: day 21 (re-challenge of 7 logs at day 21); for Log Reduction Values, day 28: day 28 (re-challenges of 7 logs at day 21 and day 28); for Log Reduction Values, day 35: day 35, after the second re-challenge; for Log Reduction Values, day 42: day 42, after two re-challenges
Method: Aloe vera gel was prepared as a 50% dilution and dispensed as 20 g per container. Inoculum was prepared as 48 hour yeast cultures in tripticase soy broth and A. niger suspension. The inoculum was pooled and 100 μl added to each container. The preservatives were prepared as 1% solutions and added to each pre-labeled container. The samples were well mixed and stored. Recoveries were carried out at selected intervals (1:10 dilutions plated with sabourad dextrose agar. Pre-labeled plates were incubated at 25-30° C. for 48-72 hours; the pH of the samples was in the range of 4-4.5. The plates were removed from incubation, counted cfu recorded and converted to log reduction values.
Thereafter, re-challenges of 7 logs each were made at day 21 and day 28.

[3] = system: microbes such as bacteria, fungi and yeasts; settings: general statement, no test described; cited from earlier work
[4] = system: naturally-occurring aerobic bacteria of beef purge; assay: Beef purge test; assay type: cell-based; settings: for Avg. CFU/g / % Reduction: 48 hours, refrigerated, 5% w/w (0.5 g in 10 ml purge); for % Reduction: vs control
Method: Two beef tenderloins containing a large quantity of purge (i.e., liquid surrounding raw meats; meat soaker pads were used to trap such liquids to the extent possible) were purchased at a local store. The purge was isolated from the packages and transferred to a series of test tubes and 10 ml of purge were placed in each test tube. To the test tubes was added 0.5 g of either LAE hydrochloride or LAE mono-laurate salts. The samples were mixed in a vortex mixer and serial dilutions were then plated on petrifilm for readings at time zero. The test tubes were then placed in the refrigerator and were again plated at 24 hours and 48 hours. The beef purge contained naturally-occurring aerobic bacteria. The goal is to have >99% reduction of the bacteria after 48 hours. LAE hydrochloride was tested at 0.5 g/10 ml w/v. […] Note that LAE-monolaurate contains about 66% of the active LAE cation.

[5] = system: Bacillus subtilus; assay: Antimicrobial activity of LAE laurate, minimum inhibitory concentration on inoculated soya agar plates; assay type: cell-based; settings: Bacillus subtilus (Gram positive), 37° C., 48 hours, salt dissolved in 1,2-pentanediol
Method: (§1) 0.1 g of N^α-lauroyl-L-arginine ethyl ester laurate (LAE laurate) was dissolved in 100 g of 1,2-pentanediol so as to provide a solution containing 1,000 parts per million of the salt. The solution was then applied to soya agar plates which had been previously inoculated with the bacteria indicated below and subsequently incubated at 37° C. for 48 hours.

[6] = system: Enterobacter aerogenes; assay: as above; assay type: cell-based; settings: Enterobacter aerogenes (Gram negative), 37° C., 48 hours, salt dissolved in 1,2-pentanediol
Method: as §1

[7] = system: Staphylococcus aureus; assay: as above; assay type: cell-based; settings: Staphylococcus aureus (Gram positive), 37° C., 48 hours, salt dissolved in 1,2-pentanediol
Method: as §1

[8] = day 42, film compounded with 1% w/w salt, vs. control

CC(O)C(=O)O.CCCCCCCCCCCC(=O)N[C@@H](CCCNC(=N)N)C(=O)OCC [LAE lactate]
Log CFU/g, day 7 ([1]; day 7, beef loin in linear low density polyethylene film compounded with 1% w/w salt): 2.31 Log CFU/g
Log CFU/g, day 14 ([1]; day 14, beef loin in linear low density polyethylene film compounded with 1% w/w salt): 3.68 Log CFU/g
Log CFU/g, day 21 ([1]; day 21, beef loin in linear low density polyethylene film compounded with 1% w/w salt): 3.97 Log CFU/g
Log CFU/g, day 28 ([1]; day 28, beef loin in linear low density polyethylene film compounded with 1% w/w salt): 5.32 Log CFU/g
Log CFU/g, day 42 ([1]; day 42, beef loin in linear low density polyethylene film compounded with 1% w/w salt): 5.57 Log CFU/g
Day 42 % reduction vs. control [1, 8]: 97.9%
Day 42 log reduction vs. control [1, 8]: 1.67
preservation compared with LAE-HCl ([2]; after the two re-challenges): superior to LAE-HCl
Log Reduction Values, day 0 [2]: 0
Log Reduction Values, day 2 [2]: 3.7
Log Reduction Values, day 7 [2]: 6.0
Log Reduction Values, day 14 [2]: 6.0
Log Reduction Values, day 21 [2]: 6.0
Log Reduction Values, day 28 [2]: 3.9
Log Reduction Values, day 35 [2]: 4.0
Log Reduction Values, day 42 [2]: 0.7

CCCCCCCCCCCC(=O)N[C@@H](CCCNC(=N)N)C(=O)OCC [LAE, N^α-lauroyl-L-arginine ethyl ester]
biocidal ions needed to inhibit or kill microbes [3]: 2-128 ppm

CCCCCCCCCCCC(=O)N[C@@H](CCCN=C(N)N)C(=O)OCC.Cl [LAE-HCl]
Avg. CFU/g [4]: <1.000E+02 CFU/g
% Reduction [4]: 99.999%
Log Reduction Values, day 0 [2]: 0
Log Reduction Values, day 2 [2]: 4.7
Log Reduction Values, day 7 [2]: 6.0
Log Reduction Values, day 14 [2]: 5.8
Log Reduction Values, day 21 [2]: 6.0
Log Reduction Values, day 28 [2]: 1.7
Log Reduction Values, day 42 [2]: 0.0

CC(O)C(=O)O (stereo not drawn) [Lactic acid]
Log Reduction Values, day 2 [2]: 1.0
Log Reduction Values, day 7 [2]: 0.2
Log Reduction Values, day 14 [2]: 0.0
Log Reduction Values, day 35 [2]: 0.0
Log Reduction Values, day 42 [2]: 0.0

[H]/N=C(\N/C(=N/[H])NCCCCCCNC(=N)NC(=N)Nc1ccc(Cl)cc1)Nc1ccc(Cl)cc1 [chlorhexidine]
biocidal ions needed to inhibit or kill microbes [3]: 2-8 ppm

Oc1cc(Cl)ccc1Oc1ccc(Cl)cc1Cl [triclosan]
biocidal ions needed to inhibit or kill microbes [3]: 2-40 ppm

N^α-lauroyl-L-arginine ethyl ester laurate [LAE laurate]
Minimum Inhibitory Concentration [5]: <25 ppm
Minimum Inhibitory Concentration [6]: <45 ppm
Minimum Inhibitory Concentration [7]: <40 ppm
Avg. CFU/g [4]: 2.82E+03 CFU/g
% Reduction [4]: 99.96%
performance compared with LAE-HCl ([4]; after 48 hours, based on the test requirements (>99% reduction)): performed as well as LAE-HCl
